Consider ten compounds from US20070219193A1, “ALKYLAMINE-SUBSTITUTED BICYCLIC ARYL COMPOUNDS USEFUL AS MODULATORS OF PPAR” (KALYPSYS, INC, priority 2006, published 2007).

What all share (assay type): cell-based
Experiment [1] has as its target T1, PPAR gamma (Homo sapiens, UniProt P37231).
T1 construct: expressed in transfected cells; host or cells: HEK293
T1 sequence (P37231 1-505): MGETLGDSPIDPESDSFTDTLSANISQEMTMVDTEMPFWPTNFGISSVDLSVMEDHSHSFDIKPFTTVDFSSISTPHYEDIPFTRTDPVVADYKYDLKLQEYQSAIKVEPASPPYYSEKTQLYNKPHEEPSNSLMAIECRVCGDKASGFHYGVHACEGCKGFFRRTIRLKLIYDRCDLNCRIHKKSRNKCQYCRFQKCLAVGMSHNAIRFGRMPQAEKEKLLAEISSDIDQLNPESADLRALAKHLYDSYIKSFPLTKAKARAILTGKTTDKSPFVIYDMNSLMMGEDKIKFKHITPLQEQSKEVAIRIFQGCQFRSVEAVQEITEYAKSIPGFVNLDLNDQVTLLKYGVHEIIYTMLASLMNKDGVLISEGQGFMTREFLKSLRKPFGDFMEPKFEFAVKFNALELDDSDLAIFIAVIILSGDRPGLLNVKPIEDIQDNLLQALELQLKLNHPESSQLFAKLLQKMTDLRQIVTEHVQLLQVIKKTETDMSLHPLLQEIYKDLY
Description: Full-length PPAR transcriptional activation assay (PPRE::Luciferase reporter, HEK293 cells), PPAR gamma. As to conditions: transfected HEK293 cells (PPARγ2 plasmid), species of receptor not given. The protocol:
(§1) HEK293 cells were seeded the day before transfection into 384-well plates at a cell density of 6,000 cells per well in 40 μl assay medium I (phenol red-free DMEM containing 4% charcoal-dextran stripped FBS, 1% Penicillin-Streptomycin and 1% GlutaMax-1). Then 25 ng of PPRE::Luciferase reporter plasmid, an expression plasmid (25 pg of PPARα, or 40 pg of PPARδ, or 75 pg of PPARγ2), and an appropriate amount of the plasmid pUC19 to bring the total DNA amount to 50 ng was added to 20 μl of phenol-red free DMEM and 150 nL of Fugene 6 and incubated for 30 minutes. The transfection mixtures were then added to the cells and incubated for three hours. 10 μl of test agents in 5% DMSO were then added to the cells and incubated at 37° C. for an additional 18 hours. Luciferase activity was then assayed by adding 25 μl/well of Britelite (Perkin Elmer) according to the manufacturer's protocol and relative light output was measured with an Analyst GT plate reader (Molecular Devices). All experimental points were done in triplicate and the assays were repeated at least 3 times.
(§2) HEK293 cells were seeded the day before transfection in […] dishes at a density of 9×10^6 cells/dish and incubated at 37° C., 10% CO2 for 16-24 hours. Then, […] of PPRE::Luciferase reporter plasmid, an expression plasmid (7.5 ng of PPARα, or 7.5 ng of PPARδ, or 75 ng of PPARγ2), and an appropriate amount of the plasmid pUC19 to bring the total DNA amount to […] were mixed with 54 μl of Fugene 6 in 2 mls of phenol red-free DMEM and incubated for 30 minutes. Transfection mixtures were then incubated with the cells for 18 hours. Cells were then replated into sterile, white TC treated 384-well assay plates at a cell density of 24×10^3 cells/well in 40 μl of assay medium II (phenol-red free DMEM containing 3% charcoal/dextran-stripped FBS, 1% Penicillin-Streptomycin and 1% GlutaMax-1) and incubated at 37° C. for 6 hours. 10 μl of test agents in 5% DMSO were then added to the cells and incubated at 37° C. for an additional 18 hours. Luciferase activity was then assayed by adding 30 μl/well of Britelite (Perkin Elmer) according to the manufacturer's protocol and relative light output was measured with an Analyst GT plate reader (Molecular Devices). All experimental points were done in triplicate and the assays were repeated 3 times.

Experiment [2] deals with T2, PPAR delta (Homo sapiens, UniProt Q03181).
T2 construct: expressed in transfected cells; host or cells: HEK293
T2 sequence (Q03181 1-441): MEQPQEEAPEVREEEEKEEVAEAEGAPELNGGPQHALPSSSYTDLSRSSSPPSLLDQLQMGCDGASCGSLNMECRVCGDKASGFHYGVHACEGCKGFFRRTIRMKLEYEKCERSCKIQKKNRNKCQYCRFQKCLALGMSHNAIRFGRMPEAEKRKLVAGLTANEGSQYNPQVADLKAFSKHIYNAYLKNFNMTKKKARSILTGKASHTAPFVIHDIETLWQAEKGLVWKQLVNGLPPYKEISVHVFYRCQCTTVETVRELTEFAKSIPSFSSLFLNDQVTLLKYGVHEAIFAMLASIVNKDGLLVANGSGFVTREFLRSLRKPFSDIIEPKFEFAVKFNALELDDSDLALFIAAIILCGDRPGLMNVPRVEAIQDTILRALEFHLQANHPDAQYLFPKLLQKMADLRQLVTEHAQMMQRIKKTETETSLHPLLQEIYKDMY
The experiment in a line: Full-length PPAR transcriptional activation assay (PPRE::Luciferase reporter, HEK293 cells), PPAR delta. The conditions noted are these: transfected HEK293 cells, species of receptor not given. The protocol: as §1, §2

In experiment [3] the target is T3, PPAR alpha (Homo sapiens, UniProt Q07869).
T3 construct: expressed in transfected cells; host or cells: HEK293
T3 sequence (Q07869 1-468): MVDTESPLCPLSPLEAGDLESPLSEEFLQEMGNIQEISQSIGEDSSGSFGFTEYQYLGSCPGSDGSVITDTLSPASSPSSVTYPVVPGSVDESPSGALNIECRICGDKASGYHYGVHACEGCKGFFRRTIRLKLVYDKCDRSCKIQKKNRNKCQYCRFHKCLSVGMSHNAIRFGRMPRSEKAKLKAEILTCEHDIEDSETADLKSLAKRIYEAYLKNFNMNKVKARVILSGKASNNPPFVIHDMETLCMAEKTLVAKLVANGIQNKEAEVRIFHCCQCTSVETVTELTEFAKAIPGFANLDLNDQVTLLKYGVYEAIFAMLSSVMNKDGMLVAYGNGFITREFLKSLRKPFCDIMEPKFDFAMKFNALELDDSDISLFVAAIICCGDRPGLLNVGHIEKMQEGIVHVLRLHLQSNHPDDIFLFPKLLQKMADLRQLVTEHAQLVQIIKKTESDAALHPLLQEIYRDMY
The experiment in a line: Full-length PPAR transcriptional activation assay (PPRE::Luciferase reporter, HEK293 cells), PPAR alpha. The conditions noted are these: transfected HEK293 cells, species of receptor not given. On the procedure:
as §1, §2

In the case of `CCc1cnc(N(CCCC2Oc3cc(CC(=O)O)ccc3CC2C)Cc2ccc(OC(F)(F)F)cc2)nc1` (single isomer, unassigned) [Example 18A, 2-(2-(3-((5-ethylpyrimidin-2-yl)(4-(trifluoromethoxy)benzyl)amino)propyl)-3-methylchroman-7-yl)acetic acid], the figures for the EC50 in experiment [1], in experiment [2] and in experiment [3] were no more than 1000 nM, no more than 1000 nM and greater than 1000 nM, respectively.
For `CCc1cnc(N(CCCC2Oc3cc(CC(=O)O)ccc3CC2C)Cc2ccc(OC(F)(F)F)cc2)nc1` (single isomer, unassigned) [Example 18B], the 50% effective concentration (EC50) in experiment [1], in experiment [2] and in experiment [3] was no more than 1000 nM throughout.
As to `CCc1cnc(N(CCCC2Oc3cc(CC(=O)O)ccc3CC2C)Cc2ccc(OC(F)(F)F)cc2)nc1` (single isomer, unassigned) [Example 18C], the half-maximal effective concentration (EC50) in experiment [1] was greater than 1000 nM; in experiment [2] it was no more than 1000 nM; in experiment [3] it was no more than 1000 nM.
On to `CCc1cnc(N(CCCC2Oc3cc(CC(=O)O)ccc3CC2C)Cc2ccc(OC(F)(F)F)cc2)nc1` (single isomer, unassigned) [Example 18D], for which the EC50 in experiment [1] is no more than 1000 nM; in experiment [2] it was no more than 1000 nM; in experiment [3], greater than 1000 nM.
For the compound `CCc1cnc(N(CCCC2Oc3cccc(CC(=O)O)c3CC2C)Cc2ccc(OC(F)(F)F)cc2)nc1` (single isomer, unassigned) [Example 19A, 2-(2-(3-((5-ethylpyrimidin-2-yl)(4-(trifluoromethoxy)benzyl)amino)propyl)-3-methylchroman-5-yl)acetic acid], the results for the concentration giving a half-maximal response (EC50) in experiment [1], in experiment [2] and in experiment [3] were no more than 1000 nM, no more than 1000 nM and greater than 1000 nM, respectively.
On to `CCc1cnc(N(CCCC2Oc3cccc(CC(=O)O)c3CC2C)Cc2ccc(OC(F)(F)F)cc2)nc1` (single isomer, unassigned) [Example 19B, 2-(2-(3-((5-ethylpyrimidin-2-yl)(4-(trifluoromethoxy)benzyl)amino)propyl)-3-methylchroman-5-yl)acetic acid], for which the concentration for a half-maximal effect (EC50) in experiment [1] was no more than 1000 nM; in experiment [2] it was no more than 1000 nM; in experiment [3], greater than 1000 nM.
`CCc1cnc(N(CCCC2Oc3cccc(CC(=O)O)c3CC2C)Cc2ccc(OC(F)(F)F)cc2)nc1` (single isomer, unassigned) [Example 19C, 2-(2-(3-((5-ethylpyrimidin-2-yl)(4-(trifluoromethoxy)benzyl)amino)propyl)-3-methylchroman-5-yl)acetic acid]: the EC50 in experiment [1] was no more than 1000 nM; in experiment [2], no more than 1000 nM; in experiment [3], greater than 1000 nM.
For the compound `CCc1cnc(N(CCCC2Oc3cccc(CC(=O)O)c3CC2C)Cc2ccc(OC(F)(F)F)cc2)nc1` (single isomer, unassigned) [Example 19D, 2-(2-(3-((5-ethylpyrimidin-2-yl)(4-(trifluoromethoxy)benzyl)amino)propyl)-3-methylchroman-5-yl)acetic acid], the figures for the concentration giving a half-maximal response (EC50) in experiment [1], in experiment [2] and in experiment [3] were no more than 1000 nM, no more than 1000 nM and greater than 1000 nM, respectively.
As to `CCc1cnc(N(CCCN2CCc3ccc(CC(=O)O)cc3C2)Cc2ccc(OC(F)(F)F)cc2)nc1` [Example 1, (2-{3-[(5-Ethyl-pyrimidin-2-yl)-(4-trifluoromethoxy-benzyl)-amino]-propyl}-1,2,3,4-tetrahydro-isoquinolin-7-yl)-acetic acid], the EC50 was no more than 1000 nM in experiment [1], no more than 1000 nM in experiment [2] and greater than 1000 nM in experiment [3].
Take `CCc1cnc(N(CCCN2CCc3ccc(CC(=O)O)cc3C2)Cc2ccc(C(F)(F)F)cc2C(F)(F)F)nc1` [Example 2, (2-{3-[(2,4-Bis-trifluoromethyl-benzyl)-(5-ethyl-pyrimidin-2-yl)-amino]-propyl}-1,2,3,4-tetrahydro-isoquinolin-7-yl)-acetic acid]: the EC50 in experiment [1] was no more than 1000 nM; in experiment [2] it was no more than 1000 nM; in experiment [3], greater than 1000 nM.
